US12186311B2, “Antiproliferative compounds and second active agents for combined use” (Celgene Corporation, priority 2019, dated 2025)

Key:
[1] = tested on: non-selective α1 adrenergic receptor in rat cerebral cortex; experiment: α1 adrenergic receptor binding at 10 μM ([3H]prazosin); settings: inhibition of control [3H]prazosin binding
Experimental: (§1) α1 Adrenergic and Dopamine D2 Receptors. Methods: Binding and functional assays for al adrenergic and dopamine D2 receptors were performed by Eurofins Cerep according to their methods.
α1 Adrenergic Receptor. Binding at 10 μM. The binding assay evaluated the affinity of test article for the non-selective al adrenergic receptor in rat cerebral cortex. Membrane homogenates of cerebral cortex were incubated in duplicate for 60 minutes at room temperature with 0.25 nM [^3H]prazosin in the absence or presence of test articles at 10 μM. After the incubation period, samples were filtered through glass fiber filters, the filters dried and then counted for radioactivity using a scintillation counter. Results are expressed as mean percent inhibition of control radioligand binding.

[2] = biological target: T1, dopamine D2S receptor in transfected HEK-293 cells (Homo sapiens, UniProt P14416); experiment: Dopamine D2S receptor binding at 10 μM; settings: read-out: Dopamine D2S % Inh. (@10 uM)
T1 construct: host or cells: HEK-293
Experimental: as §1
Dopamine D2 Receptor. Binding at 10 μM. The binding assay evaluated the affinity of test articles for the dopamine D2 receptor in transfected human embryonic kidney (HEK)-293 cells. For determining the binding in the D2s receptor assay, test article was incubated with 0.3 nM [^3H] methylspiperone or 1 nM [^3H] 7-hydroxy-2-N,N-dipropylaminotetralin (7-OH-DPAT). [^3H] Methylspiperone at 0.3 nM also was used as control ligand in the D2L binding assay. Cell membrane homogenates were incubated in duplicate at room temperature for 60 minutes with ligand in the absence or presence of test articles at 10 μM. After the incubation period, samples were filtered through glass fiber filters, the filters dried and then counted for radioactivity using a scintillation counter. Results are expressed as mean percent inhibition of control radioligand binding.

[3] = tested on: K12PE (parental) cell line; experiment: Cell proliferation, combination with Compound 2, combination index (Calcusyn), K12PE; assay type: cell-based; settings: 3 days
Experimental: (§2) K12PE (parental) and K12PE-PR (pomalidomide resistant) cell lines were treated with various doses of Compound 2 in combination with increasing doses of a BRD4 inhibitor JQ1 for 3 days. Cell proliferation was analyzed using thymidine incorporation assays. Combination index values were calculated by Calcusyn and values below 10^0 represented the synergy between the combination treatments. The results are shown in FIG. 3A (K12PE), FIG. 3B (K12PE combination index), FIG. 3C (K12PE-PR), and FIG. 3D (K12PE-PR combination index), respectively.
(§3) AMO1, AMO1-PR (pomalidomide resistant), K12PE and K12PE-PR (pomalidomide resistant) cell lines were treated with increasing doses of Compound 2 in combination with an AURKB inhibitor (AZD 1152). Changes in cell proliferation were studied in response to monotherapy and combinations at Day 3 post treatment. Combination index values were calculated by Calcusyn and values below […] represented the synergy between the combination treatments. AUKKB is one of the key target gene of MDMS8 (molecularly defined myeloma segment 8), a high risk cluster identified from myeloma genome project. The results are shown in FIG. 8A (AMO1 combination index), FIG. 8B (K12PE combination index), FIG. 8C (AMO1-PR combination index), and FIG. 8D (K12PE-PR combination index), respectively. […]

[4] = tested on: K12PE-PR (pomalidomide resistant) cell line; experiment: Cell proliferation, combination with Compound 2, combination index (Calcusyn), K12PE-PR; assay type: cell-based; settings: 3 days
Experimental: as §2, §3

[5] = tested on: AMO1 (parental) cell line; experiment: Cell proliferation, combination with Compound 2, combination index (Calcusyn), AMO1; assay type: cell-based; settings: AMO1, 3 days
Experimental: (§4) AMO1 (parental) and AMO1-PR (pomalidomide resistant) cell lines were treated with various doses of Compound 2 in combination with increasing doses of an MEK inhibitor trametinib for 3 days. Cell proliferation was analyzed using thymidine incorporation assays. Combination index values were calculated by Calcusyn and values below 10^0 represented the synergy between the combination treatments. The results are shown in FIG. 4A (AMO1), FIG. 4B (AMO1 combination index), FIG. 4C (AMO1-PR), and FIG. 4D (AMO1-PR combination index), respectively.
(§5) AMO1 and AMO1-PR (pomalidomide resistant) cell lines were treated with increasing doses of Compound 2 in combination with a PLK1 inhibitor (BI2536). Changes in cell proliferation were studied in response to monotherapy and combinations at Day 3 post treatment. Combination Index was calculated using Calcusyn based method. Combination index values were calculated by Calcusyn and values below 10^0 represented the synergy between the combination treatments. PLK1 is one of the key target gene of MDMS8 (molecularly defined myeloma segment 8), a high risk cluster identified from myeloma genome project. The results are shown in FIG. 6A (AMO1), FIG. 6B (AMO1 combination index), FIG. 6C (AMO1-PR), and FIG. 6D (AMO1-PR combination index), respectively. Inhibition of MDMS8 target gene PLK1 with Compound 2 is synergistic in AMO1 and AMO1-PR cells.
(§6) AMO1 and AMO1-PR (pomalidomide resistant) cell lines were treated with increasing doses of Compound 2 in combination with an NEK2 inhibitor (JH295). Changes in cell proliferation were studied in response to monotherapy and combinations at Day 3 post treatment. Combination index values were calculated by Calcusyn and values below 10^0 represented the synergy between the combination treatments. NEK2 is one of the key target gene of MDMS8 (molecularly defined myeloma segment 8), a high risk cluster identified from myeloma genome project. The results are shown in FIG. 7A (AMO1 combination index) and FIG. 7B (AMO1-PR combination index), respectively. Inhibition of MDMS8 target gene NEK2 with Compound 2 is synergistic in AMO1 and AMO1-PR cells.
(§7) AMO1, AMO1-PR (pomalidomide resistant), K12PE and K12PE-PR (pomalidomide resistant) cell lines were treated with increasing doses of Compound 2 in combination with an AURKB inhibitor (AZD 1152). […] Combination index values were calculated by Calcusyn and values below […] represented the synergy between the combination treatments. […]
(§8) AMO1, AMO1-PR (pomalidomide resistant) cell lines were treated with increasing doses of Compound 2 in combination with a BIRC5 inhibitor (YM155). […] Combination index values were calculated by Calcusyn and values below 10^0 represented the synergy between the combination treatments. […]

[6] = tested on: AMO1-PR (pomalidomide resistant) cell line; experiment: Cell proliferation, combination with Compound 2, combination index (Calcusyn), AMO1-PR; assay type: cell-based; settings: 3 days
Experimental: as §4, §5, §6, §7, §8

[7] = tested on: acute myeloid leukemia (AML); settings: administered alone; cited from earlier work
H929 cell line = experiment: Thymidine incorporation, combination with Compound 2, combination index (Calcusyn), H929; assay type: cell-based; settings: H929, 3 days
Experimental: H929 cell line was treated with various doses of Compound 2 in combination with increasing doses of an EZH2 inhibitor UNC1999 for 3 days. Cell proliferation was analyzed using thymidine incorporation assays. Combination index values were calculated by Calcusyn and values below 10^0 represented the synergy between the combination treatments. The results are shown in FIG. 5A (H929) and FIG. 5B (H929 combination index).

OPM-2.P10 cells = experiment: 7 day combination assay (Annexin V/7-AAD flow cytometry, fractional product method), OPM.2-P10; assay type: cell-based; settings: OPM-2.P10, 7 day assay
Experimental: (§9) Additional second agents, including DNA methyltransferase inhibitors, EZH2 inhibitors, DOT1L inhibitors, and BET inhibitors were selected for combination studies with Compound 2 in relapsed refractory multiple myeloma. Five MM cell lines with acquired or inherent resistance to lenalidomide or pomalidomide were included in the studies (OPM.2-P10, H929-1051, KMS12BM PR, L363, and JJN3). The effect of Compound 2 in combination with these second agents on MM cells were assessed in a 7 day in vitro assay. The MM cells were seeded at densities according to the growth rate of each cell line with the aim of achieving 50-100K cells by Day 7. The assay was performed in a 96-well plate. All MM cell lines were cultured in an incubator at 37° C. with 5% CO2 using the indicated cell culture media containing 1×Penicillin-Streptomycin. The MM cells were primed for 3 days with these second agents at the single agent IC50 value. […] Compound 2 was added to the cells at a dose range of 30 μM-0.00018 μM, depending on the cell line, for a 8 point dose response curve. The cells were incubated at 37° C. for an additional 4 days. At the end of the 7 day treatment, the MM cells were stained with Annexin V and 7-AAD and analyzed on a flow cytometer. Live MM cells were identified as Annexin V and 7-AAD double negative cells. […]

H929-1051 cells = experiment: 7 day combination assay (Annexin V/7-AAD flow cytometry, fractional product method), H929-1051; assay type: cell-based; settings: H929-1051, 7 day assay
Experimental: as §9

T1 sequence (P14416 1-414 isoform P14416-2): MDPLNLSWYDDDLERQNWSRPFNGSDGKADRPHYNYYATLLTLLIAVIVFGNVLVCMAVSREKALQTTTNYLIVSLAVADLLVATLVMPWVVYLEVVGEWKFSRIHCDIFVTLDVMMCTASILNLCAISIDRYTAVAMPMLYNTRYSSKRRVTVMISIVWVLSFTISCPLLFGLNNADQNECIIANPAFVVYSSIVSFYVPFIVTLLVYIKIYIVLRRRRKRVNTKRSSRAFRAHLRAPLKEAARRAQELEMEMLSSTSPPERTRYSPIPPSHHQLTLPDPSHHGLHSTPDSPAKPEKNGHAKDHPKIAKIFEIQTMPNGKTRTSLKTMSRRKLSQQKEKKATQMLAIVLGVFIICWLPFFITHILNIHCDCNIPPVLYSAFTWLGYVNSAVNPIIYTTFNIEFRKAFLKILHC

Compound: N#Cc1ccc(N2CCN(Cc3ccc(COc4cccc5c4CN(C4CCC(=O)NC4=O)C5=O)cc3)CC2)c(F)c1 (racemic) [Compound 1, 4-(4-(4-(((2-(2,6-dioxopiperidin-3-yl)-1-oxoisoindolin-4-yl)oxy)methyl)benzyl)piperazin-1-yl)-3-fluorobenzonitrile]
- Adrenergic α1 % Inh. (@10 uM) [1]: 67%
- inhibition at 10 µM [2]: 55%

Compound: N#Cc1ccc(N2CCN(Cc3ccc(COc4cccc5c4CN([C@H]4CCC(=O)NC4=O)C5=O)cc3)CC2)c(F)c1 [Compound 2, (S)-4-(4-(4-(((2-(2,6-dioxopiperidin-3-yl)-1-oxoisoindolin-4-yl)oxy)methyl)benzyl)piperazin-1-yl)-3-fluorobenzonitrile]
- Adrenergic α1 % Inh. (@10 uM) [1]: 62%
- inhibition at 10 µM [2]: 52%

Compound: CCN(CCCOc1ccc2c(Nc3cc(CC(=O)Nc4cccc(F)c4)[nH]n3)ncnc2c1)CCOP(=O)(O)O [AZD 1152]
- synergy with Compound 2 (combination index) [3]: synergistic
- synergy with Compound 2 (combination index) [4]: synergistic
- synergy with Compound 2 (combination index) [5]: synergistic
- synergy with Compound 2 (combination index) [6]: synergistic

Compound: Cc1sc2c(c1C)C(c1ccc(Cl)cc1)=N[C@@H](CC(=O)OC(C)(C)C)c1nnc(C)n1-2 [JQ1, (S)-tert-butyl 2-(4-(4-chlorophenyl)-2,3,9-trimethyl-6H-thieno[3,2-f][1,2,4]triazolo[4,3-a][1,4]diazepin-6-yl)acetate]
- synergy with Compound 2 (combination index) [3]: synergistic activity with Compound 2
- synergy with Compound 2 (combination index) [4]: synergistic activity with Compound 2

Compound: CT-011: anti-PD-1 antibody, a humanized antibody
- response in treating acute myeloid leukemia (AML) at relapse [7]: failed to show response

Compound: CCCc1cc(C)[nH]c(=O)c1CNC(=O)c1cc(-c2ccc(N3CCN(C(C)C)CC3)nc2)cc2c1cnn2C(C)C [UNC1999, 1-Isopropyl-6-(6-(4-isopropylpiperazin-1-yl)pyridin-3-yl)-N-((6-methyl-2-oxo-4-propyl-1,2-dihydropyridin-3-yl)methyl)-1H-indazole-4-carboxamide]
- synergy with Compound 2 (combination index) (H929 cell line): synergistic activity with Compound 2

Compound: Cn1cc(-c2cc(S(C)(=O)=O)ccc2OCC2CC2)c2ccccc2c1=O [Compound C, 4-[2-(cyclopropylmethoxy)-5-(methanesulfonyl)phenyl]-2-methylisoquinolin-1(2H)-one]
- synergy in combination with Compound 2 (OPM-2.P10 cells): significant synergy
- synergy in combination with Compound 2 (H929-1051 cells): significant synergy

Compound: O=C1CCC(N2Cc3c(OCc4ccc(CN5CCN(c6ccc(F)cc6F)CC5)cc4)cccc3C2=O)C(=O)N1 (racemic) [Compound A, 3-(4-((4-((4-(2,4-difluorophenyl)piperazin-1-yl)methyl)benzyl)oxy)-1-oxoisoindolin-2-yl)piperidine-2,6-dione]
- Adrenergic α1 % Inh. (@10 uM) [1]: 102%
- inhibition at 10 µM [2]: 99%
